Measured values taken from patent EP4731189B1, “SOLID ORAL FORMULATION OF PUDAFENSINE” (Initiator Pharma A/S, priority 2023, dated 2024).
≈ marks a conversion by molar mass, not a printed value.

What was measured:
[1] = Solubility of IP2015 in aqueous and non-aqueous vehicles (visual, HPLC content); type: physicochemical
Procedure: Solubility of IP2015 was determined in both aqueous and non-aqueous vehicles. In non-aqueous liquids, the solubility was visually confirmed in progressive dilutions. The solubility of IP2015 in pH specific aqueous solutions was evaluated, the solubility was visually confirmed, and the content was evaluated by HPLC. Table 2. Solubility of IP2015 in different media.

[2] = test system: male subjects with erectile dysfunction (ED); test: Phase IIb study in erectile dysfunction, IIEF-15 questionnaire efficacy; type: in vivo, humans
From the text: (§1) The study investigated the effects of repeat single oral doses of IP2015 on male subjects with erectile dysfunction (ED) on ability to develop and maintain an erection, as well as safety and tolerability of single oral doses of IP2015, effects on penile rigidity and tumescence during visual stimulation, effects on sperm count and motility, and any possible relationship between plasma levels of IP2015, its efficacy and safety.
(§2) 130 subjects were divided into 3 groups upon which the study was conducted in parallel. Each subject was dosed on four occasions with either 5 mg IP2015, 10 mg IP2015 or matched placebo. In each group, subjects were randomized evenly to each of the three study treatments and received the same treatment at each visit.
The study lasted approximately 8 weeks and consisted of the following: • A screening visit (up to 21 days prior to the baseline visit) • A baseline visit (Day -7) • Outpatient visits on Week 1 (Day 1), Week 2, Week 3 and Week 4 • A follow-up visit a minimum of 7 to 10 days after their final dose.
(§3) On Day -7, and at Week 1 (Day 1), Week 2, Week 3, Week 4 and Follow-up visits, all groups were asked to complete the IIEF-15 questionnaire. Group 2 was asked to complete a Visual Stimulation Assessment using a RigiScan Plus Monitor on Day -7, Week 1 (Day 1) and Week 4. Group 2 was also required to provide blood samples for pharmacokinetic assessment on Week 1 (Day 1) and Week 4. Group 3 was required to provide semen samples on Day -7 and Week 4.
The patients were otherwise healthy male subjects with ED as determined from an IIEF-5 score of ≤16, with a body mass index of 18 to 35 kg/m^2 (inclusive), of any ethnic origin. Subjects were aged between 18 to 59 years, inclusive.
(§4) There were three potential study treatments of 5 mg IP2015, 10 mg IP2015 or matched placebo. In each group, subjects were randomized evenly to each of the three study treatments and received the same treatment on each visit. IP2015 or matched placebo was administered once in the morning of Week 1 (Day 1), Week 2, Week 3, and Week 4 as an oral solution in the fasted state. The dose was taken with 240 mL of water at room temperature. Subjects had fasted 2 hours prior to dosing until 4 hours post-dose. Water was allowed ad libitum except for 1 hour before and 1 hour after dosing.
(§5) Efficacy was assessed through the International Index of Erectile Function (IIEF)-15 questionnaire. The change from baseline in responses to questions of the IIEF-15 questionnaire, including questions regarding erectile function, orgasmic function, sexual desire, intercourse satisfaction and overall satisfaction domain scores, was determined at different time points of the study. RigiScan assessments during the stimulus assessment, and sperm count and motility by semen sample collection was used for efficacy evaluation. Safety was assessed through AE reporting, 12-lead ECG, vital signs, physical examinations, and clinical laboratory evaluations. Pharmacokinetics was assessed by blood sampling.
The results are means±SE. The statistical differences were performed with Mixed Model Repeated Measures (MMRM).

[3] = test system: male subjects with erectile dysfunction (ED); test: Phase IIb study in erectile dysfunction, treatment-emergent adverse events and semen analysis; type: in vivo, humans
From the text: as §1, §2, §3, §4, §5

[4] = pH 5.8 Potassium Phosphate buffer
[5] = pH 6.8 Potassium Phosphate buffer
[6] = pH 7.5 Potassium Phosphate buffer
[7] = 5 mg IP2015 oral solution, overall score, tendency to difference

COc1cc2ccc(O[C@@H]3C[C@H]4CC[C@@H](C3)N4)cc2oc1=O [IP2015, Exo-7-[(-8-azabicyclo[3.2.1]octan-3-yl)oxy]-3-methoxy-chromen-2-one]
solubility ([1]; 0.1n hcl, pH 1.2 HCl (0.1N)): 17 µg/mL (≈ 0.0564 mM)
Inference (Ph.Eur) ([1]; N,N-dimethyl acetamide): Very slightly soluble
Inference (Ph.Eur) ([1]; N-methyl-2-pyrrolidone): Very slightly soluble
solubility ([1]; aqueous solutions across physiological pH): < 1000 µg/mL
Inference (Ph.Eur) ([1]; dimethyl sulfoxide): Slightly soluble
solubility ([1]; dimethyl sulfoxide): 5000 to 10000 µg/mL (≈ 16.6 to 33.2 mM)
Inference (Ph.Eur) ([1]; ethanol): Very slightly soluble
solubility ([1]; ethanol): < 1000 µg/mL
Inference (Ph.Eur) ([1]; glycerine): Very slightly soluble
solubility ([1]; glycerine): < 1000 µg/mL
solubility ([1]; n,n-dimethyl acetamide): < 1000 µg/mL
solubility ([1]; n-methyl-2-pyrrolidone): < 1000 µg/mL
Inference (Ph.Eur) ([1]; pH 1.2 HCl (0.1N)): Very slightly soluble
Inference (Ph.Eur) ([1]; pH 3.0 Acetate buffer): Slightly soluble
solubility ([1]; pH 3.0 Acetate buffer): 1170 µg/mL (≈ 3.89 mM)
Inference (Ph.Eur) ([1]; pH 3.0 Citrate buffer): Very slightly soluble
solubility ([1]; pH 3.0 Citrate buffer): 839 µg/mL (≈ 2.78 mM)
Inference (Ph.Eur) ([1]; pH 4.0 Citrate buffer): Very slightly soluble
solubility ([1]; pH 4.0 Citrate buffer): 849 µg/mL (≈ 2.82 mM)
Inference (Ph.Eur) ([1]; pH 4.5 Acetate buffer): Very slightly soluble
solubility ([1]; pH 4.5 Acetate buffer): 981 µg/mL (≈ 3.26 mM)
Inference (Ph.Eur) [1, 4]: Very slightly soluble
solubility [1, 4]: 104 µg/mL (≈ 0.345 mM)
Inference (Ph.Eur) [1, 5]: Very slightly soluble
solubility [1, 5]: 146 µg/mL (≈ 0.484 mM)
Inference (Ph.Eur) [1, 6]: Very slightly soluble
solubility [1, 6]: 84 µg/mL (≈ 0.279 mM)
Inference (Ph.Eur) ([1]; polyethylene glycol 400): Very slightly soluble
solubility ([1]; polyethylene glycol 400): < 1000 µg/mL
Inference (Ph.Eur) ([1]; propylene glycol): Slightly soluble
solubility ([1]; propylene glycol): 1000 to 5000 µg/mL (≈ 3.32 to 16.6 mM)
Inference (Ph.Eur) ([1]; purified water): Very slightly soluble
solubility ([1]; purified water): 738 µg/mL (≈ 2.45 mM)
overall response to questions of IIEF-15, p versus baseline ([2]; 5 mg IP2015 oral solution, at follow-up, significant): 0.0046
overall response to questions of IIEF-15, p versus placebo ([2]; 5 mg IP2015 oral solution, at follow-up, tendency): 0.07
Q4 in the IIEF-15, overall score, p compared to placebo ([2]; 5 mg IP2015 oral solution, overall score, no difference): 0.44
overall response to questions of IIEF-15, overall score, p versus baseline ([2]; 5 mg IP2015 oral solution, overall score, significant): 0.0032
overall response to questions of IIEF-15, overall score, p versus placebo ([2]; 5 mg IP2015 oral solution, overall score, tendency): 0.10
Q3 in the IIEF-15, overall score, p versus baseline [2, 7]: 0.07
Q3 in the IIEF-15, overall score, p versus placebo [2, 7]: 0.07
Q4 in the IIEF-15, overall score, p versus baseline [2, 7]: 0.056
Q3 in the IIEF-15, p versus baseline ([2]; 5 mg IP2015 oral solution, week 3, MMRM, significant): 0.046
Q3 in the IIEF-15, p versus placebo ([2]; 5 mg IP2015 oral solution, week 3, change from baseline, MMRM, significant): 0.034
overall IIEF-15 score, score change ([2]; low dose (5 mg) of IP2015, called clinically significant): 2
Any TEAE, figure after the comma ([3]; IP2015 5mg, N=42): 61
Any TEAE, n (%) ([3]; IP2015 5mg, N=42): 32 (76.2 %)
TEAE Dizziness, figure after the comma ([3]; IP2015 5mg, N=42): 3
TEAE Dizziness, n (%) ([3]; IP2015 5mg, N=42): 3 (7.1 %)
TEAE Headache, figure after the comma ([3]; IP2015 5mg, N=42): 15
TEAE Headache, n (%) ([3]; IP2015 5mg, N=42): 11 (26.2 %)
TEAE Mild, figure after the comma ([3]; IP2015 5mg, N=42): 56
TEAE Mild, n (%) ([3]; IP2015 5mg, N=42): 29 (69.0 %)
TEAE Moderate, figure after the comma ([3]; IP2015 5mg, N=42): 5
TEAE Moderate, n (%) ([3]; IP2015 5mg, N=42): 3 (7.1%)
TEAE Nausea, figure after the comma ([3]; IP2015 5mg, N=42): 1
TEAE Nausea, n (%) ([3]; IP2015 5mg, N=42): 1 (2.4 %)
TEAE Related*, figure after the comma ([3]; IP2015 5mg, N=42): 19
TEAE Related*, n (%) ([3]; IP2015 5mg, N=42): 10 (23.8 %)
TEAE Severe ([3]; IP2015 5mg, N=42): 0
Any TEAE, figure after the comma ([3]; IP2015 10 mg, N=43): 141
Any TEAE, n (%) ([3]; IP2015 10 mg, N=43): 34 (79.1 %)
TEAE Dizziness, figure after the comma ([3]; IP2015 10 mg, N=43): 15
TEAE Dizziness, n (%) ([3]; IP2015 10 mg, N=43): 12 (27.9 %)
TEAE Headache, figure after the comma ([3]; IP2015 10 mg, N=43): 27
TEAE Headache, n (%) ([3]; IP2015 10 mg, N=43): 16 (37.2 %)
TEAE Mild, figure after the comma ([3]; IP2015 10 mg, N=43): 132
TEAE Mild, n (%) ([3]; IP2015 10 mg, N=43): 33 (76.7%)
TEAE Moderate, figure after the comma ([3]; IP2015 10 mg, N=43): 9
TEAE Moderate, n (%) ([3]; IP2015 10 mg, N=43): 7 (16.3%)
TEAE Nausea, figure after the comma ([3]; IP2015 10 mg, N=43): 15
TEAE Nausea, n (%) ([3]; IP2015 10 mg, N=43): 8 (18.6 %)
TEAE Related*, figure after the comma ([3]; IP2015 10 mg, N=43): 84
TEAE Related*, n (%) ([3]; IP2015 10 mg, N=43): 23 (53.5 %)
TEAE Severe ([3]; IP2015 10 mg, N=43): 0
severe side effects ([3]; any of the doses (5 mg, 10 mg)): No severe side effects were observed
Treatment-emergent adverse effects ([3]; low-dose (5 mg)): comparable to the placebo group
